According to ChEMBL document CHEMBL1153667, “6N-Cinnamoyl--naltrexamine and its p-nitro derivative. High efficacy -opioid agonists with weak antagonist actions” (Bioorg Med Chem Lett, 1996):
Calls of active or inactive are those of the source. No cut-off for these calls is given here.

Assays:
Mus musculus = species on record: Mus musculus; experiment: Antagonism by the selective kappa-antagonist nor-binaltorphimine (nor-BNl) in mouse vas deferens(MVD) preparations; format: functional
Mu-type opioid receptor = Mu-type opioid receptor (Cavia porcellus, UniProt P97266); experiment: Compound was evaluated for binding affinity against [3H]- DAMGO labeled mu opioid receptor in guinea-pig brain homogenate.; format: tissue-based
Sequence of Mu-type opioid receptor (P97266 whole entry): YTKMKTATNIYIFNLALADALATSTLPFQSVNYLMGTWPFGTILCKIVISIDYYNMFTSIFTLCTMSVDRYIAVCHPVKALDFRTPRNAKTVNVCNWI

[1] = biological target: T1, Kappa-type opioid receptor (Cavia porcellus, UniProt P41144); experiment: Compound was evaluated for binding affinity against [3H]- bremazocine labeled kappa2 opioid receptor in guinea-pig brain homogenate.; format: tissue-based
T1 sequence (P41144 whole entry): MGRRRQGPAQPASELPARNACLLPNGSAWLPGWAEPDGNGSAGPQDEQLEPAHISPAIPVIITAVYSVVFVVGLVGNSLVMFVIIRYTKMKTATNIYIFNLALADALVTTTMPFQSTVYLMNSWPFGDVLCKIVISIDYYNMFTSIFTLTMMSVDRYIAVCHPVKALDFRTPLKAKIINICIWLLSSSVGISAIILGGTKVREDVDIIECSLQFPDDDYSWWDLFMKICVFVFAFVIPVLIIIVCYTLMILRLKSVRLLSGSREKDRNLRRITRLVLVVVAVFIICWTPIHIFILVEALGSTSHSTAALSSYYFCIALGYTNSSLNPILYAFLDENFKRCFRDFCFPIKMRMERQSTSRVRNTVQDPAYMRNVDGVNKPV

[2] = biological target: T1, Kappa-type opioid receptor; experiment: Compound was evaluated for binding affinity against [3H]- U-69593 labeled kappa1 opioid receptor in guinea-pig brain homogenate.; format: tissue-based
Cavia porcellus [3] = species on record: Cavia porcellus; experiment: Antagonism by the selective kappa-antagonist nor-binaltorphimine (nor-BNl) in electrically stimulated guinea-pig ileum; format: functional
[4] = biological target: T1, Kappa-type opioid receptor; experiment: Compound was evaluated for kappa opioid receptor mediated agonistic effect in electrically stimulated guinea-pig ileum; format: functional, tissue-based
[5] = biological target: T2, Kappa-type opioid receptor (Mus musculus, UniProt P33534); experiment: Compound was evaluated for kappa opioid receptor mediated agonistic effect in mouse vas deferens(MVD) preparations; format: functional
T2 sequence (P33534 whole entry): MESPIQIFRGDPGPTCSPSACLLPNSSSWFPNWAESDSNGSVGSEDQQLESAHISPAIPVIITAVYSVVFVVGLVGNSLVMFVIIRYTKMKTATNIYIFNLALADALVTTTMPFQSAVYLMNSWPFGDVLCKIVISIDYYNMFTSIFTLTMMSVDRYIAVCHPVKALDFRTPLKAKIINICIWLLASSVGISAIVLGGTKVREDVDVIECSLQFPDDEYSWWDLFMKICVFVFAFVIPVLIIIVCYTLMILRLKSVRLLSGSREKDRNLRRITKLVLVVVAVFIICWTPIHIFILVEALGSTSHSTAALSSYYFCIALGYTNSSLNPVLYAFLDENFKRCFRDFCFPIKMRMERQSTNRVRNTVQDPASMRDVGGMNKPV

Cavia porcellus [6] = species on record: Cavia porcellus; experiment: Antagonism by the selective kappa-antagonist nor-binaltorphimine (nor-BNl) in electrically stimulated guinea-pig ileum; No inhibition; format: functional
[7] = biological target: T2, Kappa-type opioid receptor; experiment: Compound was evaluated for kappa opioid receptor mediated agonistic effect in mouse vas deferens(MVD) preparations; Not an agonist; format: functional

O=C(/C=C/c1ccccc1)N[C@@H]1CC[C@@]2(O)[C@H]3Cc4ccc(O)c5c4[C@@]2(CCN3CC2CC2)[C@H]1O5
Ke (Mus musculus): 5.1 nM
Ki (Mu-type opioid receptor): 0.07 nM
Ki [1]: 12.8 nM
Ki [2]: 0.2 nM
Ke (Cavia porcellus [3]): 0.5 nM
IC50 [4]: 0.4 nM
IC50 [5]: 5.6 nM

O=C(/C=C/c1ccc([N+](=O)[O-])cc1)N[C@@H]1CC[C@@]2(O)[C@H]3Cc4ccc(O)c5c4C2(CCN3CC2CC2)[C@H]1O5
Ki (Mu-type opioid receptor): 0.2 nM
Ki [1]: 30.5 nM
Ki [2]: 0.8 nM
Ke (Cavia porcellus [6]): inactive
IC50 [7]: Not Active
IC50 [4]: 13.4 nM

O=C(/C=C/c1ccc(Cl)cc1)N[C@@H]1CC[C@@]2(O)[C@H]3Cc4ccc(O)c5c4C2(CCN3CC2CC2)[C@H]1O5
Ki (Mu-type opioid receptor): 0.1 nM
Ki [1]: 48.3 nM
Ki [2]: 0.2 nM
IC50 [7]: Not Active
Ke (Cavia porcellus [3]): 0.3 nM
IC50 [4]: 2.2 nM

Cc1ccc(/C=C/C(=O)N[C@@H]2CC[C@@]3(O)[C@H]4Cc5ccc(O)c6c5C3(CCN4CC3CC3)[C@H]2O6)cc1
Ki (Mu-type opioid receptor): 0.23 nM
Ki [1]: 171 nM
Ki [2]: 0.6 nM
Ke (Cavia porcellus [3]): 0.2 nM
IC50 [4]: 12.6 nM
IC50 [5]: 17100 nM
